Experimental data as given in US8748569B2, “Peptide amphiphiles and methods to electrostatically control bioactivity of the ikvav peptide epitope” (Northwestern University, priority 2011, dated 2014).
Peptide text beside a SMILES is read from it. * marks the point of attachment. Palmitoyl = CCCCCCCCCCCCCCCC(=O)*

Experiments:
[1] = Transmission electron microscopy (cryoTEM / conventional TEM) of PA nanostructures; assay type: physicochemical; details: for OBSERVED FIBER DIAMETER: from TEM; for ASSEMBLED MORPHOLOGY: observed morphologies from TEM; for fiber diameter in trimer ribbons: cryoTEM / TEM, fibers aggregated side-by-side; for average diameter of cylindrical fibers: cryoTEM, 150 mM NaCl, 3 mM KCl, pH 7.4
Description: The nanostructure of each PA molecule under physiologically relevant conditions was investigated using electron microscopy. Samples for vitreous ice cryo-transmission electron microscopy (cryoTEM) were prepared from a 0.1-0.5 wt % PA solution dissolved in 150 mM NaCl, 3 mM KCl, or in a 150 mM NaCl, 3 mM KCl, and 5 mM CaCl2 solution, both at a pH of 7.2-7.4. The solutions were then heated to 80° C. in a water bath for 1 hr, and then slowly cooled to room temperature over the course of 8 hr. 10 μL of each solution was pipetted onto a plasma cleaned holey carbon TEM grid (Electron Microscopy Sciences), blotted and plunged into liquid ethane using a FEI Vitrobot Mark IV. Samples were kept at −180° C. and imaged using a JEOL 1230 TEM operating at 100 kV.
Samples for conventional TEM microscopy were prepared from 0.1 wt % PA solution dissolved in ultrapure water and adjusted to a pH of 7.2-7.4 by adding NaOH. The solutions were then heated to 80° C. in a water bath for 1 hr, and then slowly cooled to room temperature over the course of 8 hr, unless noted otherwise. 2 μL of a 0.1 wt % PA solution was pipetted onto a Carbon Formvar grid (Electron Microscopy Sciences) and allowed to dry. The samples were then negatively stained by pipetting 2 uL of a 2 wt % Uranyl acetate solution and allowed to dry. Each sample was imaged using a JEOL 1230 TEM operating at 100 kV. The average diameter of nanofibers was obtained via measuring 40-100 different fibers from solutions and grids prepared throughout multiple days.
The assembly of each PA molecule under physiologically relevant conditions was examined using cryogenic electron microscopy (cryoTEM), as described in Example 4. PAs were dissolved in isotonic salt solutions resembling extracellular fluid (150 mM NaCl, 3 mM KCl, pH 7.4). […] In order to compare molecular simulation diameters with those observed from TEM, molecular simulation values for the other four PA molecules were scaled by the same amount, 87%.

[2] = Small-angle X-ray scattering (SAXS) of PA nanostructures; assay type: physicochemical; details: (Core) Shell Cylinder SAXS model; for Total SAXS Cross-section dimensions: diameter
Excerpt: Small-angle X-ray scattering (SAXS) measurements were obtained using a Rigaku S-MAX 3000 High Brilliance SAXS System. Cu Ka radiation was generated by Osmic MicroMaxs, an integrated microfocus sealed tube generator (powered at 45 kV and 0.9 mA) with Osmict Confocal Max-Fluxs optics, 3 pinholes collimation. A 20×20 cm^2 2D position-sensitive wire detector (1024×1024 pixels) was positioned 150 cm behind the examined samples, resulting in a q-range of 0.07-2.8 nm^−1. The wave vector defined as, q=(4π/λ)sin(2θ/2), where 2y is the scattering angle and λ is wavelength of Cu Kα radiation (1.542 Å). A total of 10^6 or more counts were collected in order to obtain a high signal to noise ratio. Samples were measured for 3600 s, and then background subtracted from data collected using a capillary containing the isotonic salt solution. The 2D SAXS patterns were azimuthally averaged and the background subtracted using standard methods. Data analysis was based on fitting the scattering curve to an appropriate model by a least-squares method using software provided by NIST (NIST SANS analysis version 7.0 on IGOR) ^21 The table below lists the models used to fit the SAXS curves. The Total SAXS cross-sectional dimensions correspond to length and width for molecule 2, and diameter for 3-5.

[3] = test system: P19 embryonal carcinoma cells differentiated into neurons; assay: Neurite outgrowth of neurons cultured in peptide amphiphile gels; assay type: cell-based, murine; details: compared to gels of PA 1; for promotion of neurite outgrowth (in words): gels containing 0.2 wt % of the PA with 0.8 wt % PA 1
Description: P19 embryonal carcinoma cells were cultured in media composed of α-MEM (Gibco), 7.5% newborn calf serum (Lonza), 2.5% fetal bovine serum (Gibco), penicillin (100 units/ml) and streptomycin (100 ug/ml) (Invitrogen). Neuronal differentiation was induced by plating P19 cells in non-treated Petri dishes in media containing 5 uM retinoic acid (Sigma) for 4 days. Neurospheres were collected from the Petri dish and allowed to settle in a centrifuge tube for 10 minutes. Media was removed, then trypsin/EDTA solution was added and the tube was gently agitated for 5 minutes. Cells were dissociated by triturating the neurospheres, then media was added to inactivate the trypsin. Cells were centrifuged and the pellet resuspended in media to a concentration of 25,000 cells/ul. Cells were mixed (1:4) with PA solution. The PA/cell solution was pipetted into coverslip-bottom culture dishes (MatTek) and covered with gelling solution (150 mM NaCl, 3 mM KCl, 25 mM CaCl2) for 1 minute to induce gelation, then rinsed with a 150 mM NaCl, 3 mM KCl solution, then media was added to the dish. Cells were cultured for 2 days.
In order to assay neurite outgrowth, gels were rinsed with PBS, then fixed in 4% paraformaldehyde for 30 minutes at room temperature. Gels were rinsed 3× with PBS followed by addition of 10% normal goat serum blocking solution (Invitrogen) with 0.1% Triton X-100 added. Gels were incubated overnight with primary antibody (rabbit anti-β-III-tubulin IgG, 1/2000, Covance) in blocking solution. Gels were rinsed 3× with PBS, then blocked for 30 minutes with blocking solution. Next, gels were incubated with secondary antibody (Alexa Fluor 488 goat anti-rabbit IgG, 1/100, Invitrogen) in blocking solution for 1 hour. After one PBS rinse, nuclei were stained with a 5 ug/ml solution of Hoecsht 34580 (Invitrogen) in PBS for 15 minutes, then rinsed 4 times. Gels were imaged on a Zeiss LSM 510 META laser scanning confocal microscope, individually acquiring z-stacks of randomly chosen cells with neurites. Two gels were imaged per condition for each experiment. Experiments were done in triplicate. For each condition, at least 50 neurons with neurites were imaged. Using the Simple Neurite Tracer plug-in for ImageJ software, neurites were traced and measured. A one-way ANOVA, followed by paired t-tests, were performed to determine significance between conditions. Researchers were blinded to the conditions during imaging and tracing.
Pluripotent murine P19 embryonal carcinoma cells were differentiated into neurons. These neurons were then homogeneously distributed into isotonic salt solutions composed of 0.8 wt % PA 1 mixed with 0.2 wt % 2-5 and gelled with 25 mM CaCl2 (FIG. 3a,b). Mixtures of 1 with 2-5 were used in biological experiments in order to form robust gel matrices capable of supporting cells in culture. After two days of culture, the cells were fixed and the neurites and nuclei were fluorescently labelled green and blue using β-III-tubulin immunostaining and Hoechst staining, respectively, then imaged by confocal microscopy (FIG. 14). Neurites were traced and measured, and average neurite lengths were calculated (FIG. 15).

Circular dichroism (CD) = assay type: physicochemical; details: 1 wt % in 150 mM NaCl, 3 mM KCl
Description: CD was done using a model J-715 Jasco Circular Dichroism Spectrometer. 1 wt % PA solutions were prepared in either a 150 mM NaCl, 3 mM KCl solution or a 150 mM NaCl, 3 mM KCl, and 5 mM CaCl2 solution, both at a pH of 7.2-7.4, as determined via pH paper. The solutions were then heated to 80° C. in a water bath for 1 hr, and then slowly cooled to room temperature over the course of 8 hr. The samples were measured through 0.01 mm quartz plates. Each trace represents the average of three scans. The mean residue ellipticity was corrected for purity of the lyophilized powder from peptide content analysis.

[4] = Solubility in physiologically relevant monovalent salt solution; assay type: physicochemical; details: monovalent salt solution composed of 150 mM NaCl and 3 mM KCl

## CH3(CH2)14C(O)-VVAAEEEGGIKVAV-OH (Palmitoyl-VVAAEEEGGIKVAV-OH; SMILES CCCCCCCCCCCCCCCC(=O)N[C@H](C(=O)N[C@H](C(=O)N[C@@H](C)C(=O)N[C@@H](C)C(=O)N[C@@H](CCC(=O)O)C(=O)N[C@@H](CCC(=O)O)C(=O)N[C@@H](CCC(=O)O)C(=O)NCC(=O)NCC(=O)N[C@H](C(=O)N[C@@H](CCCCN)C(=O)N[C@H](C(=O)N[C@@H](C)C(=O)N[C@H](C(=O)O)C(C)C)C(C)C)[C@@H](C)CC)C(C)C)C(C)C) [PA 4]
[1]; cryoTEM and conventional TEM
  fiber diameter in bundled dimers: 8.1±1.0 nm
  fiber diameter in triple helices: 7.7±0.9 nm
[1]; Dimer Bundle morphology
  OBSERVED FIBER DIAMETER: 77 ± 9 Å
  ASSEMBLED MORPHOLOGY: Dimer Bundle
[1]; Triple helix morphology
  OBSERVED FIBER DIAMETER: 81 ± 10 Å
  ASSEMBLED MORPHOLOGY: Triple helix
[2]
  Core Diameter: .93 nm
  Shell Thickness: 2.63 ± 1.1 nm
  Total SAXS Cross-section dimensions: 7.1 ± 2.2 nm
[3]
  promotion of neurite outgrowth (in words): did not show any biological activity with respect to neurite outgrowth
[3]; listed as 4
  promotion of neurite outgrowth (in words): did not

## CH3(CH2)14C(O)-VVAAEEGIKVAV-OH (Palmitoyl-VVAAEEGIKVAV-OH; SMILES CCCCCCCCCCCCCCCC(=O)N[C@H](C(=O)N[C@H](C(=O)N[C@@H](C)C(=O)N[C@@H](C)C(=O)N[C@@H](CCC(=O)O)C(=O)N[C@@H](CCC(=O)O)C(=O)NCC(=O)N[C@H](C(=O)N[C@@H](CCCCN)C(=O)N[C@H](C(=O)N[C@@H](C)C(=O)N[C@H](C(=O)O)C(C)C)C(C)C)[C@@H](C)CC)C(C)C)C(C)C) [PA 2]
[1]
  fiber diameter in trimer ribbons: 6.0±0.5 nm
  OBSERVED FIBER DIAMETER: 60 ± 5 Å
  ASSEMBLED MORPHOLOGY: Trimer ribbon
Circular dichroism (CD)
  peptide secondary structure from CD spectrum: beta-sheet like CD signatures
[3]
  promotion of neurite outgrowth (in words): no enhancement of neurite outgrowth
[3]; listed as 2
  promotion of neurite outgrowth (in words): did not

## CH3(CH2)14C(O)-VVAAEE-NH2 (Palmitoyl-VVAAEE-NH2) [PA 1]
[1]
  average diameter of cylindrical fibers: 6.7±0.9 nm
  OBSERVED FIBER DIAMETER: 66 ± 9 Å
  ASSEMBLED MORPHOLOGY: Cylindrical fiber
[1]; listed as PA compound 1
  average diameter of cylindrical fibers: 6.7 nm

## CCCCCCCCCCCCCCCC(=O)N[C@H](C(=O)N[C@H](C(=O)N[C@@H](C)C(=O)N[C@@H](C)C(=O)N[C@@H](CCC(=O)O)C(=O)N[C@@H](CCC(=O)O)C(=O)N[C@@H](CCC(=O)O)C(=O)NCC(=O)N[C@H](C(=O)N[C@@H](CCCCN)C(=O)N[C@H](C(=O)N[C@@H](C)C(=O)N[C@H](C(=O)O)C(C)C)C(C)C)[C@@H](C)CC)C(C)C)C(C)C [PA 3, CH3(CH2)14C(O)-VVAAEEEGIKVAV-OH] (Palmitoyl-VVAAEEEGIKVAV-OH)
[1]
  fiber diameter in trimer ribbons: 7.1±1 nm
[1]; cryoTEM and conventional TEM
  diameter of cylindrical assemblies: 12.8±1.3 nm
[1]; Cylindrical morphology
  OBSERVED FIBER DIAMETER: 128 ± 14 Å
  ASSEMBLED MORPHOLOGY: Cylindrical
[1]; Trimer ribbon morphology
  OBSERVED FIBER DIAMETER: 71 ± 5 Å
  ASSEMBLED MORPHOLOGY: Trimer ribbon
Circular dichroism (CD)
  peptide secondary structure from CD spectrum: beta-sheet like CD signatures
[2]
  Core Diameter: 1.2 nm
  Shell Thickness: 3.8 ± 0.6 nm
  Total SAXS Cross-section dimensions: 7.6 ± 1.2 nm
[3]
  promotion of neurite outgrowth (in words): promoted neurite outgrowth
[3]; listed as SEQ ID NO. 5
  promotion of neurite outgrowth (in words): promote neurite outgrowth
[3]; gels of 0.8 wt % PA 1 mixed with 0.2 wt % of the PA, gelled with 25 mM CaCl2, 2 days culture
  increase in neurite outgrowth: 42±13%
[4]
  solubility: soluble
